Test results taken from patent publication US20240392250A1, “HIGH-THROUGHPUT SELECTION AND FABRICATION OF BIOMATERIAL-ENCAPSULATED CELL MASS AND USES THEREOF” (BioArchitec Group Limited, priority 2022, published 2024).

Test system: HT-29 spheroids encapsulated BECM
Test: Drug response of HT-29 spheroid BECMs by CELLTITER GLO 3D cell viability assay
Type: cell-based
Settings: biomaterial-encapsulated HT-29 cancer cell spheroids; Osimertinib 0, 2, 4 and 8 μM; 72 hrs at 37° C.; n=10; FIG. 7
Source text: Commercially available 3D cell viability assay, CELLTITER GLO (Promega Corp.), was used to determine the cell viability of the BECMs.

## C=CC(=O)Nc1cc(Nc2nccc(-c3cn(C)c4ccccc34)n2)c(OC)cc1N(C)CCN(C)C [Osimertinib]
  cell viability of the BECMs (dose-response): a typical 3D cell culture viability dose-response was obtained
